Measured values published in article PMC6284057, “Combined Antibacterial Effects of Goat Cathelicidins With Different Mechanisms of Action” (Frontiers in Microbiology, 2018).
≈ marks a conversion by molar mass, not a printed value. Read-outs that look alike come from different tables or passages of the source.

Legend:
M. luteus B-1314 = format: cell-based, Micrococcus luteus; details: Mueller-Hinton broth, 10^6 CFU/ml, peptide diluted in 0.1% BSA, 37°C, 24 h, median of at least 3 experiments in triplicate
Description: (§1) Antimicrobial assay was performed as described previously ([Panteleev et al., 2017b]). Briefly, mid-log phase bacterial test cultures were diluted with the 2× Mueller-Hinton broth (MH, Sigma) supplemented with 1.8% NaCl or without it so that to reach a final cell concentration of 10^6 CFU/ml. 50 μl aliquots of the obtained bacterial suspension were added to 50 μl of the peptide solutions serially diluted with 0.1% water solution of bovine serum albumin (BSA) in 96-well flat-bottom polystyrene microplates (Eppendorf #0030730011). After incubation at 37°C and 900 rpm for 24 h the minimum inhibitory concentrations (MIC) were determined as the lowest peptide concentrations that prevented growth of a test microorganism observed as visible turbidity. The results were expressed as the median values determined on the basis of at least three independent experiments performed in triplicate.

B. subtilis B-886 = format: cell-based, Bacillus subtilis; details: Mueller-Hinton broth, 10^6 CFU/ml, 0.1% BSA, 37°C, 24 h, median of at least 3 experiments
Description: as §1

S. aureus 209P = format: cell-based, Staphylococcus aureus; details: Mueller-Hinton broth, 10^6 CFU/ml, 0.1% BSA, 37°C, 24 h, median of at least 3 experiments
Description: as §1

P. aeruginosa PAO1 = format: cell-based, Pseudomonas aeruginosa; details: Mueller-Hinton broth, 10^6 CFU/ml, 0.1% BSA, 37°C, 24 h, median of at least 3 experiments
Description: as §1

[1] = test system: A. baumannii (XDR CI 2675); assay: microbe, parasite or virus in culture; format: cell-based, Acinetobacter baumannii; details: read-out: Minimum inhibitory concentration
Description: as §1

K. pneumoniae (CI 287) = format: cell-based, Klebsiella pneumoniae; details: Mueller-Hinton broth, 10^6 CFU/ml, 0.1% BSA, 37°C, 24 h, median of at least 3 experiments
Description: as §1

E. coli C600 = format: cell-based, Escherichia coli; details: Mueller-Hinton broth, 10^6 CFU/ml, 0.1% BSA, 37°C, 24 h, median of at least 3 experiments
Description: as §1

E. coli ML-35p = format: cell-based, Escherichia coli; details: Mueller-Hinton broth, 10^6 CFU/ml, 0.1% BSA, 37°C, 24 h, median of at least 3 experiments
Description: as §1

[2] = test system: all the cells tested (hRBC, HEF, HEK293T); assay: Hemolysis and cytotoxicity assay; format: cell-based, human; details: positive control
Description: Hemolytic activity of the peptides was tested against the fresh suspension of human red blood cells (hRBC) using the hemoglobin release assay as described previously ([Panteleev et al., 2016]). Three experiments were performed with the hRBC from blood samples obtained from independent donors. The obtained data were represented as average means with standard deviations. The cytotoxicity of the peptides against HEK293T (transformed human embryonic kidney cells) and HEF (human embryonic fibroblasts) cell lines was studied using the colorimetric 3-(4,5-dimethylthiazol-2-yl)-2,5-diphenyltetrazolium bromide (MTT) dye reduction assay according to ([Panteleev and Ovchinnikova, 2017]). Three independent experiments were performed for each peptide. Half maximal inhibitory concentration (IC50) values were estimated as described previously ([Kuzmin et al., 2018]).

E. cloacae (XDR CI 4172) = assay: microbe, parasite or virus in culture; format: cell-based, Enterobacter cloacae; details: Enterobacter cloacae; Table S2, XDR clinical isolate; NaCl content of medium not stated; read-out: Minimum inhibitory concentration
Description: as §1

E. coli (XDR CI 1057) = assay: microbe, parasite or virus in culture; format: cell-based, Escherichia coli; details: Escherichia coli, read-out: Minimum inhibitory concentration
Description: as §1

[3] = test system: K. pneumoniae (XDR CI 1056); assay: microbe, parasite or virus in culture; format: cell-based, Klebsiella pneumoniae; details: Klebsiella pneumoniae; Table S2, XDR clinical isolate; NaCl content of medium not stated; read-out: Minimum inhibitory concentration
Description: as §1

[4] = test system: P. aeruginosa (XDR CI 1049); assay: microbe, parasite or virus in culture; format: cell-based, Pseudomonas aeruginosa; details: Pseudomonas aeruginosa; Table S2, XDR clinical isolate; NaCl content of medium not stated; read-out: Minimum inhibitory concentration
Description: as §1

[5] = test system: P. mirabilis (XDR CI 3423); assay: microbe, parasite or virus in culture; format: cell-based, Proteus mirabilis; details: Proteus mirabilis; Table S2, XDR clinical isolate; NaCl content of medium not stated; read-out: Minimum inhibitory concentration
Description: as §1

[6] = test system: in vitro translation of EGFP, E. coli BL21 Star (DE3) cell lysate; assay: Cell-free protein expression assay (EGFP); format: biochemical, Escherichia coli; details: EGFP fluorescence, 1.5 h, 30°C
Description: The cell lysate used for translation inhibition assay was prepared using the E. coli BL21 Star (DE3) cell culture grown at 30°C in the 2x YTPG liquid medium (1% yeast extract, 1.6% tryptone, 0.5% NaCl, 22 mM NaH2PO4, 40 mM Na2HPO4, 0.1 M glucose). The chromosome of DE3 strains contains a gene encoding T7 RNA polymerase under control of the lacUV5 promoter. The bacterial culture was grown to OD600 0.8–1.0, then T7 RNA polymerase gene was induced by adding 0.2 mM IPTG. Bacteria were harvested at OD600 5.0–6.0 by centrifugation (3000 g, 30 min, 4°C). The bacterial pellet was washed three times by suspending it in four volumes of wash buffer (10 mM Tris-acetate buffer, pH 8.2, 60 mM potassium glutamate, 14 mM magnesium acetate, 1 mM DTT), then resuspended in one volume of the same buffer (1 ml per 1 g of wet cell mass) and disrupted by sonication at 5–15°C. The total cell lysate was centrifuged at 15000 g (30 min, 4°C). The supernatant was split into aliquots and stored at -70°C.
In order to investigate the effect of AMPs on the translation process, the peptides were added to a cell-free protein synthesis (CFPS) reaction mix with a plasmid encoding EGFP variant (F64L, S65T, Q80R, F99S, M153T, and V163A) under a control of the T7 promoter. The reaction mix consisted of the following components: 1.2 mM ATP, 0.8 mM UTP, 0.8 mM GTP, 0.8 mM CTP, 2 mM of each of 20 proteinogenic amino acids, 1.5 mM spermidine, 1 mM putrescine dihydrochloride, 0.06647 mM calcium folinate, 170 ng/ml tRNA from the E. coli MRE 600 strain, 0.33 mM NAD, 120 mM HEPES-KOH (pH 8.0), 10 mM ammonium glutamate, 175 mM potassium glutamate, 60 mM glucose, 15 mM magnesium glutamate, 2% PEG 8000, 25% E. coli BL21 Star (DE3) cell lysate, 10 ng/μl plasmid DNA. The reaction volume was 50 μl. […] Fluorescence of the sample without inhibitor was set as the 100% value. […] Fluorescence of the synthesized EGFP was measured with the microplate reader AF2200 (λExc = 488 nm, λEm = 510 nm). […] IC50 values were determined by interpolation from non-linear regression curves using the GraphPad Prism 6.0 software.

`CC[C@H](C)[C@H](NC(=O)CN)C(=O)NCC(=O)N[C@@H](C)C(=O)N[C@H](C(=O)N[C@@H](CC(C)C)C(=O)N[C@@H](CCCCN)C(=O)N[C@H](C(=O)N[C@@H](CC(C)C)C(=O)N[C@H](C(=O)N[C@H](C(=O)NCC(=O)N[C@@H](CC(C)C)C(=O)N1CCC[C@H]1C(=O)N[C@@H](C)C(=O)N[C@@H](CC(C)C)C(=O)N[C@H](C(=O)N[C@@H](CO)C(=O)N[C@@H](Cc1c[nH]c2ccccc12)C(=O)N[C@H](C(=O)N[C@@H](CCCCN)C(=O)N[C@@H](CCCNC(=N)N)C(=O)N[C@@H](CCCCN)C(=O)N[C@@H](CCCNC(=N)N)C(=O)N[C@@H](CCC(N)=O)C(=O)N[C@@H](CCC(N)=O)C(N)=O)[C@@H](C)CC)[C@@H](C)CC)[C@@H](C)O)[C@@H](C)O)C(C)C)C(C)C` [Melittin, reference compound] gave a Minimum inhibitory concentration (M. luteus B-1314; 0.9% NaCl) of 0.5 µM (≈ 1.42 µg/mL), a Minimum inhibitory concentration (M. luteus B-1314; Without NaCl) of 0.25 µM (≈ 0.712 µg/mL) and a Minimum inhibitory concentration (B. subtilis B-886; 0.9% NaCl) of 0.5 µM (≈ 1.42 µg/mL). The Minimum inhibitory concentration (B. subtilis B-886; Without NaCl) was 0.5 µM (≈ 1.42 µg/mL), the Minimum inhibitory concentration (S. aureus 209P; 0.9% NaCl) was 16 µM (≈ 45.5 µg/mL) and the Minimum inhibitory concentration (S. aureus 209P; Without NaCl) was 2 µM (≈ 5.69 µg/mL). The Minimum inhibitory concentration (P. aeruginosa PAO1; 0.9% NaCl) was 8 µM (≈ 22.8 µg/mL), the Minimum inhibitory concentration (P. aeruginosa PAO1; Without NaCl) was 4 µM (≈ 11.4 µg/mL) and the MIC ([1]; 0.9% NaCl, Mueller-Hinton broth, 10^6 CFU/ml, 0.1% BSA, 37°C, 24 h, median of at least 3 experiments) was 8 µM (≈ 22.8 µg/mL). For the same molecule, the MIC ([1]; Without NaCl, Mueller-Hinton broth, 10^6 CFU/ml, 0.1% BSA, 37°C, 24 h, median of at least 3 experiments) was 2 µM (≈ 5.69 µg/mL), the Minimum inhibitory concentration (K. pneumoniae (CI 287); 0.9% NaCl) was 16 µM (≈ 45.5 µg/mL) and the Minimum inhibitory concentration (K. pneumoniae (CI 287); Without NaCl) was 4 µM (≈ 11.4 µg/mL). The Minimum inhibitory concentration (E. coli C600; 0.9% NaCl) was 8 µM (≈ 22.8 µg/mL), the Minimum inhibitory concentration (E. coli C600; Without NaCl) was 4 µM (≈ 11.4 µg/mL) and the Minimum inhibitory concentration (E. coli ML-35p; 0.9% NaCl) was 8 µM (≈ 22.8 µg/mL). For the same molecule, the Minimum inhibitory concentration (E. coli ML-35p; Without NaCl) was 2 µM (≈ 5.69 µg/mL) and the “concentrations that completely damaged all the cells tested” value [2] was < 2500 nM.

Molecule `C[C@@H](O)[C@H]1C(=O)N2C(C(=O)O)=C(S[C@@H]3CN[C@H](C(=O)N(C)C)C3)[C@H](C)[C@H]12` [Meropenem, reference compound] has an MIC ([1]; Acinetobacter baumannii, Table S2, XDR clinical isolate, NaCl content of medium not stated) of 0.5 µM (≈ 0.192 µg/mL), an MIC (E. cloacae (XDR CI 4172)) of 0.5 µM (≈ 0.192 µg/mL) and an MIC (E. coli (XDR CI 1057)) of 0.125 µM (≈ 0.0479 µg/mL). The MIC [3] was 16 µM (≈ 6.14 µg/mL), the MIC [4] was 64 µM (≈ 24.5 µg/mL) and the MIC [5] was > 128 µM.

`[H]/N=C(/N)N[C@H]1[C@H](O)[C@@H](O)[C@H](O[C@@H]2O[C@@H](C)[C@](O)(C=O)[C@H]2O[C@@H]2O[C@@H](CO)[C@H](O)[C@@H](O)[C@@H]2NC)[C@@H](N/C(N)=N\[H])[C@@H]1O` [streptomycin] was tested, and the “concentration of full inhibition of in vitro protein synthesis” value [6] was > 1 µM and the IC50 ([6]; at least 3 independent experiments, read-out: IC50, inhibition of in vitro protein synthesis) was 200 nM.

KWCFRVCYRGICYRRCR [Tachyplesin-1] was tested, and the “inhibition of protein biosynthesis, in words” value [6] was “comparable level of inhibition”.
